Data: ChEMBL document CHEMBL6078681, “Discovery and Optimization of Dihydroquinolin-2(1H)-ones as Novel Highly Selective and Orally Bioavailable Phosphodiesterase 5 Inhibitors for the Treatment of Pulmonary Arterial Hypertension” (J Med Chem, 2024)

Tests used:
[1] = biological target: T1, cGMP-specific 3',5'-cyclic phosphodiesterase (Homo sapiens, UniProt O76074); experiment: Inhibition of PDE5A (unknown origin) using […] as substrate incubated for 1 hr by fluorescence polarization assay
[2] = biological target: T1, cGMP-specific 3',5'-cyclic phosphodiesterase; experiment: Inhibition of PDE5A (unknown origin) using […] as substrate at 100 nM incubated for 1 hr by fluorescence polarization assay relative to control

IC50 [1] [nM]	inhibition [2] [%]	Structure (SMILES)
291	–	Cc1ccc(-c2c(C#N)c(=O)n(Cc3ccccc3)c3ccc(NC(C)c4ccccn4)cc23)cc1 (stereo not given)
578	–	Cc1ccc(-c2c(C#N)c(=O)n(Cc3ccccc3)c3cc(NC(C)c4ccccn4)ccc23)cc1 (stereo not given)
8	–	COc1ccc(-c2c(C#N)c(=O)n(Cc3ccccc3)c3c(N[C@@H](C)c4ccccn4)cccc23)cc1
–	12	COc1ccc(Cn2c(=O)c(C#N)c(-c3ccc(C)cc3)c3cccc(NC(C)c4ccccn4)c32)cc1Cl (stereo not given)
55	–	Cc1ccc(-c2c(C#N)c(=O)n(CC3CCCC3)c3c(NC(C)c4ccccn4)cccc23)cc1 (stereo not given)
30	–	CCCCNc1cccc2c(-c3ccc(C)cc3)c(C#N)c(=O)n(Cc3ccccc3)c12

More lines, now with the values behind:

Structure (SMILES)	IC50 [1] [nM]	inhibition [2] [%]
COc1ccc(-c2c(C#N)c(=O)n(Cc3ccccc3)c3c(NC(C)c4ccccn4)cccc23)cc1 (stereo not given)	5	–
Cc1ccc(-c2c(C#N)c(=O)n(Cc3ccc(F)cc3)c3c(NC(C)c4ccccn4)cccc23)cc1 (stereo not given)	–	5
CC(Nc1cccc2c(C3CCCC3)c(C#N)c(=O)n(Cc3ccccc3)c12)c1ccccn1 (stereo not given)	–	14
CC(C)c1c(C#N)c(=O)n(Cc2ccccc2)c2c(NC(C)c3ccccn3)cccc12 (stereo not given)	39	–
